Assay results from patent US4396607A, “Muramyl peptide derivatives and pharmaceutical compositions” (priority 1978, dated 1983).

How the values were obtained:
Listeria monocytogenes = experiment: Liposome forms: anti-Listeria activity; format: in vivo; conditions: mice, 1.10^3 Listeria i.v.
Description: The tests were carried out under the conditions of (5), using a dose of Listeria monocytogen, known to cause typically a cellular type infection.
The treatment of the mice and the inoculation were carried out by the intravenous route. The products were injected in the liposome form at the indicated doses. The controls only received isotonic solution.
The dose of Listeria administered was, in all the tests, 1.10^3 cells.
The tests whose results are given below were carried out by varying the interval of time separating the treatment of inoculation from the Listeria monocytogenes (either 1, either 4, or 8 days). The number of surviving mice at the 5th and at the 10th day following inoculation was followed, and the percentage protection determined as for the preceding tests.

ovalbumin [1] = experiment: Liposome forms: adjuvant character in guinea pigs, ovalbumin in aqueous solution; format: in vivo, Hartley male guinea pigs; conditions: ovalbumin 1 mg in foot pad, 200 μg
Description: The antigen was ovalbumin injected in aqueous solution in the foot pad of Hartley male guinea pigs at a volume of 0.1 ml in each rear paw, at the dose of 1 mg per guinea pig. The adjuvant preparations were injected simultaneously at the indicated doses. After three weeks, the animals received by the dermal route, in a volume of 0.1 ml, 0.025 mg of antigen. The diameter of the cutaneous reactions was measured after 48 hours. The animals were bled and the titers measured.

[2] = Toxicity (lethal dose 50) by parenteral administration in the adrenalectomised mouse; format: in vivo, mice
Description: The toxicity of the products according to the invention was investigated by parenteral administration in mice. It was observed that the toxic doses were of an order of magnitude very much higher than that of the doses at which these products manifest their activity. Thus the lethal dose 50 of the products according to the invention tested was higher than 5 mg/kg of animal in the adrenalectomised mouse, whose sensitivity to endotoxins is well-known.

[3] = test system: Limulus amoebocyte lysate; experiment: Limulus test (endotoxic type activity); conditions: gel formation after 20 minutes at 37° C.
Description: For this purpose, 0.1 ml of the Limulus amoebocyte lysate preparation (marketed by the MALLINCKRODT Company, at St. LOUIS, U.S.A.) was mixed with an equal volume of the tested product at various concentrations in solution in apyrogenic distilled water. The vessels used were also made apyrogenic by dry heating in the oven, at 180° C., for 2 hours.
After incubating the mixture for 20 minutes at 37° C. in tubes, the formation of gel characteristics of the presence of endotoxin was estimated.

Ovalbumin [4] = experiment: Adjuvant character in emulsion (delayed hypersensitivity and antibodies); format: in vivo, Hartley guinea pigs; conditions: guinea pigs, 50 μg in AlF emulsion with 1 mg ovalbumin
Description: The tests were carried out on batches of 6 male Hartley guinea pigs of 350 g. The administration was done by intradermal injection into the plantar pad of each of the rear paws. Ovalbumin (constituting the antigen) in the amount of 1 mg is prepared in 0.1 ml of an emulsion of saline isotonic solution, in any oily phase constituted either by the Freund imcomplete adjuvant (FIA), or by the complete adjuvant (FCA) formed by the FIA to which is added 0.1 mg of whole Mycobacterium smegmatis cells. The compound according to the invention was administered in the amount of 0.05 mg added in the emulsion containing the FIA.
Eighteen days after this immunization, possible delayed hypersensitivity reactions to the antigen were sought by injecting by the intradermal route 0.01 mg of ovalbumin in the side of the animals, and 48 hours later, the reaction of the point of injection was observed. The diameter in millimeters of the reaction thus caused was measured.
Twenty-one days after the injection, the animals were bled. […]

Klebsiella = experiment: Liposome forms: anti-Klebsiella activity (intravenous infection); format: in vivo; conditions: mice, i.v. treatment at D - 1, 1.5.10^3 Klebsiella i.v.
Description: Under the previously described conditions, with the exception of the infection produced by the intravenous injection of 1.5.10^3 Klebsiella, the tests are renewed to determine the anti-infectious action. The administrations in the form of solution and of liposome were prepared.

[5] = test system: bovine serum albumin (BSA); experiment: Adjuvant character in the aqueous phase (antibody titer by passive hemagglutination); format: in vivo, Swiss mice; conditions: mice, 0.5 mg BSA with 0.1 mg tested substance SC in isotonic saline, booster day 30, titer at the 36th day
Description: (§1) Groups of 8 Swiss mice aged two months received, by sub-cutaneous injection (SC), 0.5 mg of antigen constituted by bovine serum albumin (BSA) with 0.1 mg or without the tested substance in an isotonic saline solution. This high dose of antigen, because it is situated at the limit of the paralyzing dose with respect to the immunitary response, results, for this reason, in a weak or zero response to the antigen only in the controls: It constitutes therefore a severe criterien to establish the activity of an adjuvant substance. Thirty days later, the mice received, by the same administrative route, a booster containing 0.1 mg of the same antigen.
(§2) The antibody level was determined, six days after the booster, by passive hemagglutination using sheep's red blood corpuscles treated with formalin and covered with the antigen studied according to the method described by A. A. HIRATA and M. W. BRANDISS (J. Immunol., 100, 641-648, 1968).
The antibody titer, represented by the maximum serum dilution agglutinating a given amount of sheep corpuscles, reaches a maximum at the 36th day and is established in the following manner: […]

Klebsiella pneumoniae = experiment: Anti-infectious activity with respect to Klebsiella; format: in vivo; conditions: mice, i.v. treatment 24h before 2 × 10^4 bacteria i.m.
Description: The survival of groups of inoculated mice under the above conditions and treated by means of the products according to the invention was followed.
The infecting dose was 2.10^4 Klebsiella; it was administered by the intramuscular route.
The administration of the tested product was carried out by the intravenous route in 0.2 ml of apyrogenic physiological solution, the controls receiving the solution alone. It was carried out 24 hours before the inoculation.
The percentage protection indicated is a difference of the percentages of survivors of the treated group with respect to the control group.

BSA = experiment: Liposome forms: adjuvant character in mice, BSA as antigen; format: in vivo; conditions: 10 μg
Description: as §1, §2
The series of tests was carried out on mice under the same conditions as indicated in (3)(a), using BSA as antigen.

[6] = Liposome forms: toxicity in the adrenalectomized mouse; format: in vivo; conditions: groups of six mice, 100 μg
Description: Pharmacological tests similar to the preceding ones were reproduced with MDP, MDP-L-Ala-eicosyl-ester and MDP-L-Ala-glyceryl-mycolate comparing the effects of administration in liposome form with those obtained for products in solution and with liposomes without muramyl-peptide.
The liposomes were prepared in the manner described above.
The products, the doses administered and their effect on the mortality of groups of six mice are indicated below.

[7] = i.v. treatment at D - 1, dose 100 μg
[8] = i.v. treatment at D - 4, dose 100 μg
[9] = i.v. treatment at D - 8, dose 100 μg

SMILES: CCCCCCCCCCCCCCCCCCCCOC(=O)[C@H](C)NC(=O)CC[C@@H](NC(=O)[C@H](C)NC(=O)[C@@H](C)O[C@H]1[C@H](O)[C@@H](CO)OC(O)[C@@H]1NC(C)=O)C(N)=O (stereo partly drawn) [MDP--L--Ala--eicosyl--ester, eicosyl ester of N-acetyl-muramyl-L-alanyl-D-isoglutamine-L-alanine]
- % of protection (Listeria monocytogenes; [7]): 0%
- Number of survivors D + 5 (Listeria monocytogenes; [7]): 3
- Number of survivors D + 10 (Listeria monocytogenes; [7]): 0
- % of protection (Listeria monocytogenes; [8]): 0%
- Number of survivors D + 5 (Listeria monocytogenes; [8]): 4
- Number of survivors D + 10 (Listeria monocytogenes; [8]): 4
- % of protection (Listeria monocytogenes; [9]): 0%
- Number of survivors D + 5 (Listeria monocytogenes; [9]): 2
- Number of survivors D + 10 (Listeria monocytogenes; [9]): 2
- Log2 of the hemagglutinating titer (ovalbumin [1]): 7.33 ± 1.51
- HSR (diameter of the cutaneous reactions; in parentheses number of animals showing the reaction) (ovalbumin [1]; read after 48 hours): 0
- lethal dose 50 [2]: higher than 5 mg/kg
- Limulus test result (concentration of the tested product) [3]: 10 µg/mL
- Log2 of the hemagglutinating titer (Ovalbumin [4]; serum day 21): 11.25 ± 1.14
- HSR (diameter of the delayed hypersensitivity reaction) (Ovalbumin [4]; skin test day 18, read 48 hours later): 6 ± 4 millimeters
- % of protection (Klebsiella; 1 μg): 25%
- Number of survivors at D + 3 (Klebsiella; 1 μg): 4
- Number of survivors at D + 5 (Klebsiella; 1 μg): 4
- Number of survivors at D + 8 (Klebsiella; 1 μg): 4
- % of protection (Klebsiella; 10 μg): 31%
- Number of survivors at D + 3 (Klebsiella; 10 μg): 13
- Number of survivors at D + 5 (Klebsiella; 10 μg): 9
- Number of survivors at D + 8 (Klebsiella; 10 μg): 9
- % of protection (Klebsiella; 100 μg): 63%
- Number of survivors at D + 3 (Klebsiella; 100 μg): 14
- Number of survivors at D + 5 (Klebsiella; 100 μg): 14
- Number of survivors at D + 8 (Klebsiella; 100 μg): 14
- Log2 hemagglutinating titer [5]: 7.11 ± 2.03
- % of protection (Klebsiella pneumoniae; dose per mouse 10): 46%
- Number of survivors at day 3 (Klebsiella pneumoniae; dose per mouse 10): 18
- Number of survivors at day 5 (Klebsiella pneumoniae; dose per mouse 10): 14
- Number of survivors at day 8 (Klebsiella pneumoniae; dose per mouse 10): 14
- % of protection (Klebsiella pneumoniae; dose per mouse 100): 70%
- Number of survivors at day 3 (Klebsiella pneumoniae; dose per mouse 100): 23
- Number of survivors at day 5 (Klebsiella pneumoniae; dose per mouse 100): 23
- Number of survivors at day 8 (Klebsiella pneumoniae; dose per mouse 100): 20
- Log2 of the hemagglutinating titer (BSA): 3.64 ± 1.15
- Number of dead mice [6]: 0/6
